Experimental findings from US9447044B2, “Thioaryl derivatives as GPR120 agonists” (LG LIFE SCIENCES LTD., priority 2012, dated 2016) are described below.

The structures appear in SMILES notation.

In the first experiment the target is T1, hGPR120 (Homo sapiens, UniProt Q5NUL3).
T1 construct: expressed in transfected cells; host or cells: CHO-K1
T1 sequence (Q5NUL3 1-361): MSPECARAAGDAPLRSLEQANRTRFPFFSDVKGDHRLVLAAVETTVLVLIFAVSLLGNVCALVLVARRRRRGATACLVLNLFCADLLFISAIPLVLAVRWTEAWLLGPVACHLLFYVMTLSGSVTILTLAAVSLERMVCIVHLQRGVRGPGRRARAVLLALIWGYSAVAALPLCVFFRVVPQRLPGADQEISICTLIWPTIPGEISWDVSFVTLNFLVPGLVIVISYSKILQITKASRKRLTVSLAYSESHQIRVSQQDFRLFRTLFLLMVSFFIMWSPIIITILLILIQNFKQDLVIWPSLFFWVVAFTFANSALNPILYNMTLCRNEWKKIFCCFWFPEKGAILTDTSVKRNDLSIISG
The experiment in a line: Measurement of activity of GPR120 agonist (cell-based assay), calcium fluorescence. Particulars: CHO-K1 cells expressing Ga16 and hGPR120; Calcium 5 dye fluorescence; activity class. The procedure:
CHO-K1 cells expressing Ga16 and hGPR120 were dispensed into each well of a 96-well plate (3×10^4 cells/100 μl/well) and then incubated in 5% CO2, 37° C. incubator for 18 hours. Each well was treated with 100 μl of Calcium 5 dye (Molecular Devices) solution including 2% DMSO and then incubated in 5% CO2, 37° C. incubator for 1 hour. Serially diluted GPR120 agonists were prepared to a final concentration of 0.5% DMSO in a 96-well plate. Each well was treated with 50 μl of the agonist compounds using Plexstation II, and then fluorescence was measured at Ex 485 nm, Em 525 nm.
Fluorescence increased by the serially diluted GPR120 agonists is calculated as a relative percent (%) value based on the fluorescence represented by the treatment of 0.1% DMSO only. […] The calculation of measurement was carried out by using statistical software (Prizm).
Activity is denoted based on the following criteria: A=>20 μM, B=[…], C=2˜0.2 μM, D=<0.2 μM
Take `CCCCSc1ncccc1COc1c(F)cc(CCC(=O)O)cc1F` [Example 26, 3-[4-(2-butylsulfanyl-pyridin-3-ylmethoxy)-3,5-difluoro-phenyl]-propionic acid]: the EC50 (commonly the concentration giving half of the maximal effect) was below 200 nM.

In the case of `O=C(O)CCc1cc(F)c(OCc2cccnc2SCCC(F)(F)F)c(F)c1` [Example 27, 3-{3,5-difluoro-4-[2-(3,3,3-trifluoro-propylsulfanyl)-pyridin-3-ylmethoxy]-phenyl}-propionic acid], the EC50 lay within 200 to 2000 nM. Same read-out and setting: the same measure for `CC(C)(C)CSc1ncccc1COc1c(F)cc(CCC(=O)O)cc1F` [Example 28, 3-{4-[2-(2,2-dimethyl-propylsulfanyl)-pyridin-3-ylmethoxy]-3,5-difluoro-phenyl}-propionic acid]: 200 to 2000 nM; for `O=C(O)CCc1ccc(OCc2cccc(SC3CCCC3)n2)cc1` [Example 29]: below 200 nM. Same read-out and setting: with `O=C(O)CCc1cc(F)c(OCc2cccc(SC3CCCC3)n2)c(F)c1` [Example 30] the figure was below 200 nM; with `O=C(O)CCc1cc(F)c(OCc2cccc(SC3CCCCC3)n2)c(F)c1` [Example 31], below 200 nM. Take `CCc1ccc(COc2c(F)cc(CCC(=O)O)cc2F)c(SC(C)C)n1` [Example 32]: the EC50 fell in the range of 200 to 2000 nM. Regarding `CC(C)Sc1cccc(COc2c(F)cc(CCC(=O)O)cc2F)n1` [Example 33, 3-[3,5-difluoro-4-(6-isopropylsulfanyl-pyridin-2-ylmethoxy)-phenyl]-propionic acid], the EC50 was below 200 nM. As for `CCC(C)Sc1cccc(COc2c(F)cc(CCC(=O)O)cc2F)n1` (stereo not drawn) [Example 34, 3-[4-(6-sec-butylsulfanyl-pyridin-2-ylmethoxy)-3,5-difluoro-phenyl]-propionic acid], the concentration giving a half-maximal response (EC50) was below 200 nM. On to `O=C(O)C1CC1c1cc(F)c(OCc2cccc(SC3CCCC3)n2)c(F)c1` (stereo not drawn) [Example 35, 2-[4-(6-cyclopentylsulfanyl-pyridin-2-ylmethoxy)-3,5-difluoro-phenyl]-cyclopropane carboxylic acid], for which the EC50 is below 200 nM. The same measure, in the same setting: the same measure for `O=C(O)C1CC1c1cc(F)c(OCc2cccnc2SC2CCC2)c(F)c1` (stereo not drawn) [Example 36, 2-[4-(2-cyclobutylsulfanyl-pyridin-3-ylmethoxy)-3,5-difluoro-phenyl]-cyclopropane carboxylic acid]: below 200 nM; for `CC(Cc1ccc(OCc2cccnc2SC2CCC2)c(F)c1)C(=O)O` (stereo not drawn) [Example 37, 3-[4-(2-cyclobutylsulfanyl-pyridin-3-ylmethoxy)-3-fluoro-phenyl]-2-methyl-propionic acid]: below 200 nM; for `CC(Cc1ccc(OCc2cccnc2SC2CCCC2)c(F)c1)C(=O)O` (stereo not drawn) [Example 38, 3-[4-(2-cyclopentylsulfanyl-pyridin-3-ylmethoxy)-3-fluoro-phenyl]-2-methyl-propionic acid]: below 200 nM. Still for that read-out and setting: with `CCC(C)Sc1ncccc1COc1ccc(CC(C)C(=O)O)cc1F` (stereo not drawn) [Example 39, 3-[4-(2-sec-butylsulfanyl-pyridin-3-ylmethoxy)-3-fluoro-phenyl]-2-methyl-propionic acid] the figure was below 200 nM. On the same count and under the same terms, the same measure for `CC(Cc1ccc(OCc2cccnc2SCC2CC2)c(F)c1)C(=O)O` (stereo not drawn) [Example 40, 3-[4-(2-cyclopropylmethylsulfanyl-pyridin-3-ylmethoxy)-3-fluoro-phenyl]-2-methyl-propionic acid]: below 200 nM; for `CC(C)Sc1ncccc1COc1c(F)cc(CC(C)C(=O)O)cc1F` (stereo not drawn) [Example 41, 3-[3,5-difluoro-4-(2-isopropylsulfanyl-pyridin-3-ylmethoxy)-phenyl]-2-methyl-propionic acid]: below 200 nM; for `CCC(C)Sc1ncccc1COc1c(F)cc(CC(C)C(=O)O)cc1F` (stereo not drawn) [Example 42, 3-[4-(2-sec-butylsulfanyl-pyridin-3-ylmethoxy)-3,5-difluoro-phenyl]-2-methyl-propionic acid]: 200 to 2000 nM.

On to `COc1ccc(COc2c(F)cc(CCC(=O)O)cc2F)c(SC(C)C)n1` [Example 43, 3-[3,5-difluoro-4-(2-isopropylsulfanyl-6-methoxy-pyridin-3-ylmethoxy)-phenyl]-propionic acid], for which the EC50 is below 200 nM. As to `CC(Cc1cc(F)c(OCc2cccc(SC3CCCC3)n2)c(F)c1)C(=O)O` (stereo not drawn) [Example 44, 3-[4-(6-cyclopentylsulfanyl-pyridin-2-ylmethoxy)-3,5-difluoro-phenyl]-2-methyl-propionic acid], the 50% effective concentration (EC50) is below 200 nM. Same read-out and setting: with `Cc1ccc(COc2c(F)cc(CCC(=O)O)cc2F)c(SC2CCCC2)n1` [Example 45, 3-[4-(2-cyclopentylsulfanyl-6-methyl-pyridin-3-ylmethoxy)-3,5-difluoro-phenyl]-propionic acid] the figure was below 200 nM. As for `CC(Cc1cc(F)c(OCc2cccc(SC3CCC3)n2)c(F)c1)C(=O)O` (stereo not drawn) [Example 46, 3-[4-(6-cyclobutylsulfanyl-pyridin-2-ylmethoxy)-3,5-difluoro-phenyl]-2-methyl-propionic acid], the EC50 is below 200 nM. On the same count and under the same terms, the same measure for `CC(Cc1cc(F)c(OCc2cccnc2SC2CCCC2)c(F)c1)C(=O)O` (stereo not drawn) [Example 47, 3-[4-(2-cyclopentylsulfanyl-pyridin-3-ylmethoxy)-3,5-difluoro-phenyl]-2-methyl-propionic acid]: below 200 nM; for `CCC(C)Sc1cccc(COc2c(F)cc(CC(C)C(=O)O)cc2F)n1` (stereo not drawn) [Example 48, 3-[4-(6-sec-butylsulfanyl-pyridin-2-ylmethoxy)-3,5-difluoro-phenyl]-2-methyl-propionic acid]: 200 to 2000 nM. In the case of `CC(C)Sc1cccc(COc2c(F)cc(CC(C)C(=O)O)cc2F)n1` (stereo not drawn) [Example 49, 3-[3,5-difluoro-4-(6-isopropylsulfanyl-pyridin-2-ylmethoxy)-phenyl]-2-methyl-propionic acid], the EC50 was below 200 nM. Still for that read-out and setting: with `CC(Cc1cc(F)c(OCc2cccnc2SCC2CC2)c(F)c1)C(=O)O` (stereo not drawn) [Example 50, 3-[4-(2-cyclopropylmethylsulfanyl-pyridin-3-ylmethoxy)-3,5-difluoro-phenyl]-2-methyl-propionic acid] the figure was below 200 nM; with `CCCSc1ncccc1COc1c(F)cc(CC(C)C(=O)O)cc1F` (stereo not drawn) [Example 51, 3-[3,5-difluoro-4-(2-propylsulfanyl-pyridin-3-ylmethoxy)-phenyl]-2-methyl-propionic acid], below 200 nM. On the same count and under the same terms, the same measure for `CC(C)Sc1cccc(COc2ccc(CC(C)C(=O)O)cc2F)n1` (stereo not drawn) [Example 52, 3-[3-fluoro-4-(6-isopropylsulfanyl-pyridin-2-ylmethoxy)-phenyl]-2-methyl-propionic acid]: below 200 nM; for `CCC(C)Sc1cccc(COc2ccc(CC(C)C(=O)O)cc2F)n1` (stereo not drawn) [Example 53, 3-[4-(6-sec-butylsulfanyl-pyridin-2-ylmethoxy)-3-fluoro-phenyl]-2-methyl-propionic acid]: 200 to 2000 nM; for `CC(Cc1ccc(OCc2cccc(SC3CCCC3)n2)c(F)c1)C(=O)O` (stereo not drawn) [Example 54, 3-[4-(6-cyclopentylsulfanyl-pyridin-2-ylmethoxy)-3-fluoro-phenyl]-2-methyl-propionic acid]: below 200 nM. On to `CC(Cc1ccc(OCc2cccc(SC3CCC3)n2)c(F)c1)C(=O)O` (stereo not drawn) [Example 55, 3-[4-(6-cyclobutylsulfanyl-pyridin-2-ylmethoxy)-3-fluoro-phenyl]-2-methyl-propionic acid], for which the EC50 is below 200 nM. With `CC(Cc1cc(F)c(OCc2cccnc2SC2CCC2)c(F)c1)C(=O)O` (stereo not drawn) [Example 56, 3-[4-(2-cyclobutylsulfanyl-pyridin-3-ylmethoxy)-3,5-difluoro-phenyl]-2-methyl-propionic acid], the EC50 was below 200 nM. Still for that read-out and setting: the same measure for `COc1cc(CCC(=O)O)ccc1OCc1cccnc1SC1CCCC1` [Example 58, 3-[4-(2-cyclopentylsulfanyl-pyridin-3-ylmethoxy)-3-methoxy-phenyl]-propionic acid]: below 200 nM; for `CC(C)Sc1ncccc1COc1ccc2c(c1)OCC2CC(=O)O` (stereo not drawn) [Example 59, [6-(2-isopropylsulfanyl-pyridin-3-ylmethoxy)-2,3-dihydro-benzofuran-3-yl]-acetic acid]: 200 to 2000 nM; for `CC(C)Sc1ncccc1COc1ccc(CC(C)C(=O)O)cc1F` (stereo not drawn) [Example 60, 3-[3-fluoro-4-(2-isopropylsulfanyl-pyridin-3-ylmethoxy)-phenyl]-2-methyl-propionic acid]: below 200 nM. The same measure, in the same setting: the same measure for `CCCCSc1ncccc1COc1ccc(CC(C)C(=O)O)cc1F` (stereo not drawn) [Example 61, 3-[4-(2-butylsulfanyl-pyridin-3-ylmethoxy)-3-fluoro-phenyl]-2-methyl-propionic acid]: below 200 nM.

The experiment is the same for the next values; noted with them: CHO-K1 cells expressing Ga16 and hGPR120; Calcium 5 dye fluorescence; numeric value.
Take `COc1cc(CCC(=O)O)ccc1OCc1cccnc1SC(C)C` [Example 57, 3-[4-(2-isopropylsulfanyl-pyridin-3-ylmethoxy)-3-methoxy-phenyl]-propionic acid]: the EC50 was determined as 454 nM.
